Test results from paper PMC5908784, “Extracellular loops 2 and 3 of the calcitonin receptor selectively modify agonist binding and efficacy” (Biochemical Pharmacology, 2018).
Where a chain is given by its changes, count along the chain named. Where a SMILES comes first, the peptide text is derived from it. Bridges are numbered along the chain shown (N, C = ends).

Tests used:
Test in all cases: cAMP accumulation
Type in all cases: cell-based
Conditions in all cases: mean ± S.E.M.; for Emax: cAMP maximal response, SEM; for EC50: cAMP, CV1-FlpIn cells, 30 min, IBMX
[1] = biological target: T1, hCTR V293A (Homo sapiens, UniProt P30988, V293A)
T1 construct: c-Myc (N); expressed in transfected cells
T1 sequence (P30988 25-474 V293A): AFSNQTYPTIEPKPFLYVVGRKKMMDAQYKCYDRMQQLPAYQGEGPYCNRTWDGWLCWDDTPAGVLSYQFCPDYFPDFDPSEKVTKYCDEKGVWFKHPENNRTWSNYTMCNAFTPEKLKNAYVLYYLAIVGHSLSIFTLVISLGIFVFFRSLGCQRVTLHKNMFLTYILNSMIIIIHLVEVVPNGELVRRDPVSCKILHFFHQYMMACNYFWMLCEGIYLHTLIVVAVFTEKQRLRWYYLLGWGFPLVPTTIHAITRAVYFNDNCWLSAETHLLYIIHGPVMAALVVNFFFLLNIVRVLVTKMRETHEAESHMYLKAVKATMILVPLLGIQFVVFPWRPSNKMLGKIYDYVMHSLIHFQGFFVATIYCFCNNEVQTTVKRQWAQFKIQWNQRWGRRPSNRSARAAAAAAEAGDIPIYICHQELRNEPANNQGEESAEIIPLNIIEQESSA
In short: (§1)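 For each mutant, cAMP generated during a 30 min ligand exposure with IBMX is reported as a fraction of the 100 μM forskolin maximum. Cells were ethanol-extracted and dried at room temperature prior to measurement.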

[2] = biological target: T2, hCTR N288A (Homo sapiens, UniProt P30988, N288A)
T2 construct: expressed in transfected cells
T2 sequence (P30988 25-474 N288A): T1 sequence (P30988 25-474 V293A) with N264A, A269V
In short: as §1

[3] = biological target: T3, hCTR F356A (Homo sapiens, UniProt P30988, F356A)
T3 construct: c-Myc (N); expressed in transfected cells
T3 sequence (P30988 25-474 F356A): T1 sequence (P30988 25-474 V293A) with A269V, F332A
In short: as §1

[4] = biological target: T4, hCTR Y374A (Homo sapiens, UniProt P30988, Y374A)
T4 construct: c-Myc (N); expressed in transfected cells
T4 sequence (P30988 25-474 Y374A): T1 sequence (P30988 25-474 V293A) with A269V, Y350A
In short: as §1

[5] = biological target: T5, hCTR R281A (Homo sapiens, UniProt P30988, R281A)
T5 construct: expressed in transfected cells
T5 sequence (P30988 25-474 R281A): T1 sequence (P30988 25-474 V293A) with R257A, A269V
In short: as §1

EC50 [1] [nM] | EC50 [2] [nM] | EC50 [3] [nM] | EC50 [4] [nM] | EC50 [5] [nM] | Structure (SMILES) | Emax [1] [%] | Emax [2] [%] | Emax [3] [%] | Emax [4] [%] | Emax [5] [%]
8.71 | 10.2 | 66.1 | 25.1 | 38.9 | CC(C)C[C@H](NC(=O)CNC(=O)[C@H](C)NC(=O)[C@H](CC(C)C)NC(=O)[C@H](CCCNC(=N)N)NC(=O)[C@H](Cc1cnc[nH]1)NC(=O)[C@@H](NC(=O)[C@@H](NC(=O)[C@@H]1CSSC[C@H](NC(=O)[C@H](C)N)C(=O)N[C@@H](CC(=O)O)C(=O)N[C@@H]([C@@H](C)O)C(=O)N[C@@H](C)C(=O)N[C@@H]([C@@H](C)O)C(=O)N1)C(C)C)[C@@H](C)O)C(=O)N[C@@H](CC(C)C)C(=O)N[C@@H](CO)C(=O)N[C@@H](CCCNC(=N)N)C(=O)N[C@@H](CO)C(=O)NCC(=O)NCC(=O)N[C@H](C(=O)N[C@H](C(=O)N[C@@H](CCCCN)C(=O)N[C@@H](CC(N)=O)C(=O)N[C@@H](CC(N)=O)C(=O)N[C@@H](Cc1ccccc1)C(=O)N[C@H](C(=O)N1CCC[C@H]1C(=O)N[C@H](C(=O)N[C@@H](CC(N)=O)C(=O)N[C@H](C(=O)NCC(=O)N[C@@H](CO)C(=O)N[C@@H](CCCCN)C(=O)N[C@@H](C)C(=O)N[C@@H](Cc1ccccc1)C(N)=O)C(C)C)[C@@H](C)O)C(C)C)C(C)C)C(C)C [hαCGRP] | 153 ± 17 | 118 ± 17 | 128 ± 10 | 82 ± 12 | 114 ± 25
0.0501 | 0.0631 | 0.0316 | 0.02 | 0.646 | CSCC[C@H](NC(=O)CNC(=O)[C@H](CO)NC(=O)[C@H](Cc1ccccc1)NC(=O)[C@H](CCCNC(=N)N)NC(=O)[C@H](Cc1c[nH]cn1)NC(=O)[C@H](Cc1ccccc1)NC(=O)[C@H](CC(N)=O)NC(=O)[C@H](CC(N)=O)NC(=O)[C@H](CC(C)C)NC(=O)[C@H](CC(N)=O)NC(=O)[C@H](CCCNC(=N)N)NC(=O)[C@H](Cc1c[nH]c2ccccc12)NC(=O)[C@H](Cc1ccc(O)cc1)NC(=O)[C@H](C)NC(=O)[C@H](CO)NC(=O)[C@H](CC(C)C)NC(=O)[C@@H](NC(=O)[C@@H]1CSSC[C@H](N)C(=O)N[C@@H](CO)C(=O)N[C@@H](CC(N)=O)C(=O)N[C@@H](CC(C)C)C(=O)N[C@@H](CO)C(=O)N[C@@H]([C@@H](C)O)C(=O)N1)C(C)C)C(=O)NCC(=O)N[C@@H](Cc1ccccc1)C(=O)NCC(=O)N1CCC[C@H]1C(=O)N[C@@H](CCC(=O)O)C(=O)N[C@H](C(=O)N1CCC[C@H]1C(N)=O)[C@@H](C)O [pCT] (H-CSNLSTCVLSAYWRNLNNFHRFSGMGFGPETP-NH2; disulfide 1-7) | 107 ± 5 | 105 ± 10 | 100 ± 2 | 90 ± 9 | 147 ± 16
– | – | – | – | – | CC(C)C[C@H](NC(=O)[C@H](CCCCN)NC(=O)CNC(=O)[C@H](CC(C)C)NC(=O)[C@@H](NC(=O)[C@@H]1CSSC[C@H](N)C(=O)N[C@@H](CO)C(=O)N[C@@H](CC(N)=O)C(=O)N[C@@H](CC(C)C)C(=O)N[C@@H](CO)C(=O)N[C@@H]([C@@H](C)O)C(=O)N1)C(C)C)C(=O)N[C@@H](CO)C(=O)N[C@@H](CCC(N)=O)C(=O)N[C@@H](CCC(=O)O)C(=O)N[C@@H](CC(C)C)C(=O)N[C@@H](Cc1c[nH]cn1)C(=O)N[C@@H](CCCCN)C(=O)N[C@@H](CC(C)C)C(=O)N[C@@H](CCC(N)=O)C(=O)N[C@H](C(=O)N[C@@H](Cc1ccc(O)cc1)C(=O)N1CCC[C@H]1C(=O)N[C@@H](CCCNC(=N)N)C(=O)N[C@H](C(=O)N[C@@H](CC(N)=O)C(=O)N[C@H](C(=O)NCC(=O)N[C@@H](CO)C(=O)NCC(=O)N[C@H](C(=O)N1CCC[C@H]1C(N)=O)[C@@H](C)O)[C@@H](C)O)[C@@H](C)O)[C@@H](C)O [sCT] | 112 ± 11 | 69 ± 5 | 100 ± 1 | 96 ± 5 | 119 ± 5
– | – | – | – | – | CC[C@H](C)[C@H](NC(=O)[C@H](C)NC(=O)[C@@H](NC(=O)[C@H](CCC(N)=O)NC(=O)[C@@H]1CCCN1C(=O)[C@H](Cc1ccccc1)NC(=O)[C@@H](NC(=O)[C@H](Cc1c[nH]cn1)NC(=O)[C@H](Cc1ccccc1)NC(=O)[C@H](CCCCN)NC(=O)[C@H](CC(N)=O)NC(=O)[C@H](Cc1ccccc1)NC(=O)[C@H](CC(=O)O)NC(=O)[C@H](CCC(N)=O)NC(=O)[C@@H](NC(=O)[C@H](Cc1ccc(O)cc1)NC(=O)[C@@H](NC(=O)CNC(=O)[C@H](CC(C)C)NC(=O)[C@H](CCSC)NC(=O)[C@@H]1CSSC[C@H](N)C(=O)NCC(=O)N[C@@H](CC(N)=O)C(=O)N[C@@H](CC(C)C)C(=O)N[C@@H](CO)C(=O)N[C@@H]([C@@H](C)O)C(=O)N1)[C@@H](C)O)[C@@H](C)O)[C@@H](C)O)[C@@H](C)O)C(=O)NCC(=O)N[C@H](C(=O)NCC(=O)N[C@@H](C)C(=O)N1CCC[C@H]1C(N)=O)C(C)C [hCT] | 123 ± 8 | 117 ± 10 | 131 ± 8 | 83.2 ± 5 | 117 ± 15
– | – | – | – | – | CC(C)C[C@H](NC(=O)[C@H](CC(N)=O)NC(=O)[C@H](CC(N)=O)NC(=O)[C@H](CO)NC(=O)[C@H](CO)NC(=O)[C@H](CCCNC(=N)N)NC(=O)[C@@H](NC(=O)[C@H](CC(C)C)NC(=O)[C@H](Cc1ccccc1)NC(=O)[C@H](CC(N)=O)NC(=O)[C@H](C)NC(=O)[C@H](CC(C)C)NC(=O)[C@H](CCCNC(=N)N)NC(=O)[C@H](CCC(N)=O)NC(=O)[C@@H](NC(=O)[C@H](C)NC(=O)[C@@H]1CSSC[C@H](NC(=O)[C@@H](N)CCCCN)C(=O)N[C@@H](CC(N)=O)C(=O)N[C@@H]([C@@H](C)O)C(=O)N[C@@H](C)C(=O)N[C@@H]([C@@H](C)O)C(=O)N1)[C@@H](C)O)C(C)C)C(=O)NCC(=O)N1CCC[C@H]1C(=O)N[C@H](C(=O)N[C@@H](CC(C)C)C(=O)N1CCC[C@H]1C(=O)N1CCC[C@H]1C(=O)N[C@H](C(=O)N[C@@H](CC(N)=O)C(=O)N[C@H](C(=O)NCC(=O)N[C@@H](CO)C(=O)N[C@@H](CC(N)=O)C(=O)N[C@H](C(=O)N[C@@H](Cc1ccc(O)cc1)C(N)=O)[C@@H](C)O)C(C)C)[C@@H](C)O)C(C)C [rAmy] | 91 ± 10 | 64 ± 8 | 126 ± 15 | 92 ± 9 | 63 ± 14
